Records with an inconclusive call do not appear. The source made the active and inactive calls.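 How the source made its calls: active means EC50 no greater than ten times the top concentration tested; inconclusive means flat fit with inhibition between 30% and 70%, or an invalid poor-quality fit; inactive means EC50 beyond ten times the top concentration.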

For this assay, the system named is S. cerevisiae GRE-lacZ reporter, Hsp90 function, luminescence. The assay can be described thus: GRE-lacZ reporter signal reduction in yeast, SAR follow-up, mechanism study for C. albicans Hsp90 inhibitor project, S. cerevisiae, luminescence (AID 434938).
One may read the EC50 as the concentration that produces a half-maximal response. With `O=C(Nc1nc(-c2ccccn2)cs1)c1ccc(Br)s1`, the EC50 is 4.74 µM. In the case of `CCc1ccc2c(c1)/C(=C/C(=O)c1cccs1)C(=O)N2`, the EC50 was 2.91 µM. In the case of `O=C(Nc1sc2c(c1C(=O)c1ccc(Cl)cc1)CCCC2)c1cccnc1`, the EC50 is 15.1 µM. In the case of `COc1ccc(-n2nc(C(=O)NCC(=O)N3CCN(c4ccccc4)CC3)c3ccccc3c2=O)c(OC)c1`, the EC50 was > 26 µM (inactive). Consider `O=C(Nc1nnc(-c2ccc3c(c2)CCCC3)o1)c1ccc(Cl)cc1Cl`, for which the EC50 is 2.16 µM. The figure for `Cc1ccc(/C=C/C(=O)c2ccccc(=O)c2O)cc1C` is 8.43 µM; for `CCOC(=O)c1c(-c2ccccc2Cl)cn2ccccc12` it is 16.5 µM; for `Cc1ccc(C(=O)c2coc3c2C(=O)C(=O)c2ccccc2-3)cc1` it is 7.66 µM. Regarding `CCCC(=O)NC(c1ccccc1)c1ccc2cccnc2c1O` (centres undefined), the EC50 is > 26 µM (inactive). As to `O=c1c2cc(Br)ccc2nc(-c2cccc(C(F)(F)F)c2)n1O`, the 50% effective concentration (EC50) was 10.2 µM.

With `Clc1ccc2c(c1)C(c1cccs1)=NNC(c1cccnc1)=N2`, the EC50 was 26.7 µM.

`O=C(Nc1nnc(SCc2ccc(Cl)cc2)s1)c1ccc2ccccc2n1`: the EC50 was > 26 µM (inactive). `O=C(Nc1nnc(CCc2ccccc2)s1)c1ccco1`: the EC50 is > 26 µM (inactive).

Turning to `CC(C)COCc1ccc(O)c2ncccc12`, the EC50 is > 26 µM (inactive). As to `Cc1oc2c(F)c(F)c(F)c(F)c2c1S(=O)(=O)Nc1cccc(C(F)(F)F)c1`, the EC50 is 8.89 µM. In the case of `Cc1ccc(Nc2nc(N)c([N+](=O)[O-])c(N3CCC(C)CC3)n2)cc1C`, the EC50 was 9.91 µM. On to `Cc1ccc(C(=O)Nc2cccc(-c3cn4ccccc4n3)c2)cc1`, for which the EC50 is > 26 µM (inactive). Consider `O=C(Oc1c(Cl)cc(Cl)c2cccnc12)c1cccs1`, for which the EC50 was 12 µM.

As to `COc1ccc(-c2nnc(NC(=O)c3ccc(F)cc3)o2)cc1`, the EC50 was > 26 µM (inactive).

The values above are taken from PubChem BioAssay AID434938 (Broad Institute, 2010).
